In US8703975B2, “Aryl (ethanoic) propanoic acid ascorbyl ester, preparation method thereof and medicament containing the same” (Wuxi Hongrui Bio-Pharma-Tech Co., Ltd., priority 2009, dated 2014):

What was measured:
[1] = Solubility in solvents and water; assay type: physicochemical
[2] = test system: Arteriovenous Loop Thrombus; assay: Arteriovenous loop thrombus in rats, thrombus wet weight and inhibition rate; assay type: in vivo; details: 5.4 mg·kg^−1 by gavage for 3 days
Protocol: Normal rats, half male and half female, were randomly grouped according to table 1. The administration group was given water solution of Sodium Salt L-ascorbic acid-6-O—(S)-ibuprofen ester (pH 7.4) by gavage and the control group was given equivalent pH normal saline for continuous 3 days. The rat was intraperitoneally injected with 350 mg of 8% chloral hydrate per kg for anesthesia 1 h after the last administration, and then fixed in the supine position to separate the right common carotid artery and the left external jugular vein. An early weighed No. 7 operation line (about 8 cm long) was placed in the middle of a 10 cm long polyethylene tube, and then the tube was filled with normal saline and both ends of the tube were connected with an intubation filled with heparin (about 3 cm long), in which one end was inserted into the jugular vein, and the other end was inserted into the common carotid artery. After opening the artery clip, the in vitro loop flow was formed. The blood flow was interrupted after 15 min followed by quickly taking the thrombus and weighing. […]
Statistical analysis: the experimental data was represented as x±s, and the significance of the differences was determined with one-factor analysis of variance. t represented t-test results between the control group and the Sodium Salt L-ascorbic acid-6-O—(S)-ibuprofen ester.

Solubility ([1]; in chloroform)	Solubility ([1]; in cyclohexane)	Solubility ([1]; in ethanol)	Solubility ([1]; in methanol)	Solubility ([1]; in propylene glycol)	Solubility ([1]; in water)	solubility in water ([1]; water) [g]	Structure (SMILES)	thrombus wet weight/body weight × 100 ([2]; 1 h after last administration, 15 min loop flow, x±s)	Thrombus inhibition rate ([2]; versus control group) [%]
insoluble	insoluble	soluble	soluble	soluble	insoluble		CC(C)Cc1ccc([C@H](C)C(=O)OC[C@H](O)[C@H]2OC(=O)C(O)=C2O)cc1 [Embodiment 1, L-Ascorbic Acid-6-O—(S)-Ibuprofen Ester]		
						12.8	CC(C)Cc1ccc([C@H](C)C(=O)OC[C@H](O)[C@H]2OC(=O)C(O)=C2[O-])cc1.[Na+] [Sodium Salt L-Ascorbic Acid-6-O—(S)-Ibuprofen Ester]	10.372 ± 0.801	12.9
